The METLIN SMRT retention time set (Domingo-Almenara et al. 2019)

Assay: gradient 5% acetonitrile 3 min, to 50% in 2 min, to 85% in 15 min, held 3 min, 100 µL/min
Conditions: column: Zorbax Extend-C18 2.1 x 50 mm; eluents: water / acetonitrile, 0.1% formic acid
Method in brief: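 Retention time was recorded from adduct peaks, which were picked computationally and each inspected manually. Pure standards ran in mixtures of ~100 molecules on HPLC coupled to a quadrupole time-of-flight mass spectrometer, in positive and negative ionization mode, through a Zorbax Extend-C18 column (2.1 × 50 mm, 1.8 μm) at 100 μL/min. Eluents were water and acetonitrile, each with 0.1% formic acid.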

SMILES	RP-LC retention time
CCc1ccc(N2C=C(C(=O)OC)S(=O)(=O)c3ccccc32)cc1	942 s
CCC(=O)N1CCc2nc(N3CCN(C(=O)CCOC)CC3)sc2C1	875 s
O=C(Nc1cnc(-c2ccc(Cl)cc2)nc1)c1cncc(Br)c1	1070 s
COc1ccc(-c2noc(Cn3cnc4c(cnn4-c4ccc(OC)cc4)c3=O)n2)cc1	982 s
Cc1nn(C(C)C(=O)NCCCN2CCCCCC2)c(=O)c2c1sc1ccccc12 (stereo not given)	702 s
CC(C)CNC(=O)c1ccc2c(c1)CCCN2S(=O)(=O)c1ccccc1	936 s
O=C1COc2ccccc2N1Cc1nc(-c2cccc(F)c2)no1	990 s
COc1ccccc1NC(=O)N1CCc2cn(C)c3cccc(c23)C1	944 s
COc1ccc(-c2noc(C3CCCN(S(=O)(=O)c4ccc(C)cc4)C3)n2)cc1OC (stereo not given)	993 s
CCOC(=O)C1CCN(C(=O)c2cn(-c3cc(N4CCC(C)CC4)ncn3)cn2)CC1	941 s
O=C(Nc1ccccc1)C(=O)c1cn(CC(=O)N2CCOCC2)c2ccccc12	860 s
O=C(NCC#CCN1CCc2ccccc2C1)NC1CCCCC1	566 s
CCOC(=O)c1nc(NCc2cccc(OC)c2)c2ccccc2n1	754 s
CCn1c(=O)sc2cc(S(=O)(=O)N3CCC(C(=O)NCc4ccccc4OC)CC3)ccc21	881 s
CCN1C(=O)CCc2cc(NS(=O)(=O)c3cccc(Br)c3)ccc21	833 s
O=C(Nc1cccc(Br)c1)N1CCc2nc(-c3ccc(Cl)cc3)ncc2C1	1190 s
Cc1ccsc1C(=O)N1CCC2(CC1)N=C(c1ccc(Cl)cc1)NO2	896 s
CCc1ccc(C(C)NC(=O)C2CCN(c3nnc(-c4ccc(OC)cc4)o3)CC2)cc1 (stereo not given)	943 s
Cc1oc(-c2[nH]ncc2C(=O)N2CCCC2)cc1S(=O)(=O)NCCCN(C)C	569 s
COc1ccc(-c2nc3c(C)cccn3c2Nc2ccccc2C)cc1	755 s
Cc1nn(C(C)C(=O)NCCCN(C)C2CCCCC2)c(=O)c2nn(-c3ccccc3)c(C)c12 (stereo not given)	656 s
O=C(NCc1cccs1)NCC1CC(=O)N(Cc2ccc(F)cc2)C1 (stereo not given)	656 s
COc1ccccc1-c1nc2nccc(-c3ccsc3)n2n1	872 s

SMILES	RP-LC retention time
O=S(=O)(c1ccc(Cl)c(-c2nnc(-c3ccccc3)o2)c1)N1CCN(c2ccccn2)CC1	802 s
O=C(Nc1ccc(F)c(F)c1)C1CCCN(S(=O)(=O)Cc2ccccc2)C1 (stereo not given)	998 s
O=C(NC1CC1)C1CCN(c2nc3ccc(-c4ccccc4)nc3s2)CC1	865 s
Cc1ccc(S(=O)(=O)N2C(=O)CCC2C(=O)Nc2ccc(C)c(C)c2)cc1 (stereo not given)	973 s
Cc1c(Cl)cccc1NC(=O)NCCc1cn(CC(C)C)c2ncccc12	902 s
Cc1ccccc1Cn1cc(C(=O)O)c(S(=O)(=O)N2CCSCC2)n1	848 s
COc1ccc(N2CCN(CC(=O)N3CCC(C(N)=O)CC3)CC2)cc1	885 s
CCc1cc(=O)n(CC(=O)Nc2ccc(OC)c(F)c2)c(N)n1	788 s
CN1CCC2(CC1)CN(C(=O)CCc1nc3ccccc3s1)Cc1ccccc1O2	671 s
COCCn1ncc(N2CCC(C(=O)N(C)CC(=O)Nc3ccc(F)cc3)C2)cc1=O (stereo not given)	650 s
COc1ccc(-c2nc3cc(C)ccc3o2)cc1NC(=O)NCc1ccco1	1010 s
CCOC(=O)CNC(=O)N1CCN(Cc2nc3cccnc3n2-c2ccccc2)CC1	585 s
COc1cc(SC)ccc1C(=O)NCCc1c[nH]c2ccc(C)cc12	953 s
Cn1cnc2c(C(=O)Nc3ccc(F)cc3)nn(-c3ccc(Cl)cc3)c2c1=O	956 s
O=C(NCc1ccco1)N1CCN(Cc2nc3cccnc3n2-c2ccccc2)CC1	620 s
Cc1ccc(C2Cn3cnc(C(=O)N4CCC(C(=O)NCc5cc(F)ccc5F)CC4)c3CO2)cc1 (stereo not given)	808 s
COc1ccc(-c2csc3c(=O)n(Cc4ccccn4)cnc23)cc1	815 s
CCCCOc1ccccc1C(=O)N(Cc1ccc(Br)o1)C1CCS(=O)(=O)C1 (stereo not given)	991 s
COc1ccc(CCNC(=O)Cn2nc3n(c2=O)CCCCC3)cc1OC	641 s
Cc1nn2c(CNC(=O)c3cccs3)c(-c3ccccc3)nc2s1	797 s
CS(=O)(=O)c1cccc(-c2nnc(NC(=O)c3ccc(Cl)s3)o2)c1	711 s
CCN(Cc1ccccc1)C(=O)CN1C(=O)C2CCCCN2c2ccc(S(=O)(=O)N(C)C)cc21 (stereo not given)	647 s
CCC(C(=O)NCc1ccc(C)o1)n1nc(C)c2c(C)n(-c3ccccc3)nc2c1=O (stereo not given)	862 s

SMILES	RP-LC retention time
CCn1c(=O)c(N2CCC(NC(=O)Nc3ccccc3Cl)CC2)nc2ccccc21	1010 s
CN(C)CCNCc1ccc(-c2ccc(Cl)cc2Cl)o1	609 s
Cc1cccc(NC(=O)Cn2ncc3c(N4CCN(c5ccccn5)CC4)ncnc32)c1C	609 s
Cc1nc(CCNC(=O)[C@H]2CCCN2C(=O)c2ccc(Cl)cc2)cs1	674 s
COC(=O)C1=CN(C2CC2)c2cc(N3CCN(C4CCCCC4)CC3)c(F)cc2S1(=O)=O	643 s
CCC(C)C(NC(=O)Cc1ccc(OC)c(Cl)c1)C(=O)Nc1nc2ccccc2[nH]1 (stereo not given)	762 s
CSc1ncccc1C(=O)N1CCc2nc(C)ncc2C1	606 s
CCOC(=O)c1c(S(=O)(=O)N2CCC(C(=O)NC3CCCCCCC3)CC2)c(C)n(C)c1C	932 s
CN(CCc1noc(COc2ccc(Cl)cc2)n1)C(=O)NCCc1ccccc1	965 s
CN1CCN(C(=O)CSc2nccnc2Sc2ccccc2)CC1	637 s
CCOC(=O)c1c(S(=O)(=O)N2CCC(C(=O)NCc3cccc(C)c3)CC2)c(C)n(C)c1C	841 s
CCCCc1c(-c2ccc(OC)cc2)[nH]c2nccnc12	912 s
O=C(Cn1ncc2c(c1=O)N(C1CC1)C(=O)CS2)NCc1ccco1	648 s
CCn1c(=O)c2cc(C(=O)Nc3ccc4c(c3)CCC4)nn2c2ccccc21	1090 s
O=c1c2cc(Cl)ccc2oc2cc(O)cc(O)c12	1000 s
Cn1c(=O)c(N2CCN(C(=O)c3ccc(F)c(Cl)c3)CC2)nc2ccccc21	966 s
Cc1ccsc1C(=O)N1CCN(c2cc(-c3ccc(Cl)cc3)[nH]n2)CC1	749 s
COCCN1C(=O)Cc2ccccc2C1C(=O)NC(C)C (stereo not given)	652 s
Cc1cc2oc(C(=O)NCC(c3cccs3)N(C)C)cc(=O)c2cc1Cl (stereo not given)	652 s
CCOc1ccc(-c2nc3ncccn3c2NCc2ccc(C)cc2)cc1	800 s
CNC(=O)[C@@H]1C[C@H](Oc2ccccc2)CN1C(=O)c1ccoc1	666 s
CCOCCCNCc1ccc(-c2ccccc2F)o1	672 s
O=C(Cn1c(=O)c2cc(-c3ccco3)nn2c2ncccc21)NCCc1ccccc1	797 s

SMILES	RP-LC retention time
CCC(C)NC(=O)c1nnc(-c2ccc(S(=O)(=O)N3CCOCC3)cc2)o1 (stereo not given)	787 s
CCCN(C)C(=O)c1cc2c(s1)N(CCC)CCCC2	1170 s
CCCCN1CCN(C(=O)c2cn(-c3cc(N4CCSCC4)ncn3)cn2)CC1	639 s
CC(C)n1cnc(S(=O)(=O)N2CCCC(C(=O)Nc3cccc(Cl)c3)C2)c1 (stereo not given)	842 s
CCc1noc(-c2cccnc2N2CCCN(Cc3cccc(F)c3)CC2)n1	660 s
CCOc1ccc(-c2nc(-c3cccc(-c4ccn[nH]4)c3)no2)cc1	999 s
OC1CCCCC1N1CCC(c2ccccc2)CC1 (stereo not given)	679 s
Cn1cc(CCN2CCC(C(=O)NCc3ccc4c(c3)OCO4)CC2)c2cccnc21	584 s
CN(Cc1ccccc1)C(=O)CCSC1CCc2ccccc2NC1=O (stereo not given)	798 s
O=C(NCC1CCCO1)c1ccc(Cn2nc(N3CCN(c4ccccc4)CC3)ccc2=O)o1 (stereo not given)	737 s
CCn1ccc(C(=O)N2CC(c3nc(CCOCC4CC4)no3)C2)n1	725 s
Cc1nnc(C2CCCN(C(=O)c3cc(-c4ccc5c(c4)OCO5)n[nH]3)C2)s1 (stereo not given)	654 s
CCS(=O)(=O)N1CCCN(C(=O)NC)CC1	566 s
O=c1c2cc(-c3ccc(F)cc3)nn2cnn1Cc1nc(-c2cccc(C(F)(F)F)c2)no1	1200 s
CN(C)C[C@@H]1CN(Cc2ccccc2)C[C@H]1NS(=O)(=O)c1cccnc1	537 s
O=C(c1cn(-c2cc(-c3nc(C4CC4)no3)ccn2)cn1)N1CCCCCC1	883 s
O=C(Nc1ccccc1)N1C[C@H]2C[C@H](C1)[C@H]1CCCC(=O)N1C2	622 s
COc1ccc(C2(C(=O)N3[C@H]4CC[C@@H]3c3cnc(C)nc3C4)CCCCC2)cc1	812 s
COc1cccc(C(C)NC(=O)C2CCCN(c3nccnc3Sc3ccc(C)cc3)C2)c1 (stereo not given)	1120 s
CCOC(=O)c1noc2nc(C)nc(N(C)c3cc(C)ccc3OC)c12	1040 s
Cc1ccccc1-c1noc(Cn2cnc3c(cnn3-c3cc(Cl)ccc3C)c2=O)n1	1100 s
